Assay [1] can be described thus: Cytotoxicity against mouse Hepa-1c1c7 cells assessed as cell survival after 2 days by MTT assay. The settings on record: Hepa-1c1c7, 48 h. It is filed as functional, cell-based. In general terms: Formazan colour is commonly taken as a measure of viable cells.
Assay [2] is described as follows: Chemoprevention index, ratio of IC50 for mouse Hepa-1c1c7 cells to drug level required to double quinone reductase activity in mouse Hepa-1c1c7 cells. It is filed as functional.

As for `COc1ccc2c(c1)O[C@H]1c3ccc(O)cc3OC[C@@H]21`, the IC50 in assay [1] was more than 74 µM. Further, in assay [2], the Ratio is more than 5.4.
For `COc1cc(-c2coc3cc(O)ccc3c2=O)cc(OC)c1O` the same measures were more than 63.7 µM and more than 3.7.
Regarding `COc1c(O)ccc2c1OC[C@H]1c3cc4c(cc3O[C@@H]21)OCO4`, the 50% inhibitory concentration (IC50) in assay [1] was more than 63.7 µM. For the same molecule, the Ratio in assay [2] is given as more than 4.4.
The like results for `COc1cc2c(c3c1C(=O)C[C@@H](c1ccccc1)O3)[C@H]1[C@@H](O2)OC(C)(C)[C@@H]1OC(C)=O` were, in that order, more than 50.7 µM and more than 9.
For `O=c1cc(-c2ccccc2)oc2c1ccc1occc12` [LANCEOLATIN B] the same measures were more than 76.3 µM and more than 3.3.
Regarding `Oc1ccc2c(c1)OC[C@H]1c3cc4c(cc3O[C@@H]21)OCO4` [MAACKIAIN], the 50% inhibitory concentration (IC50) in assay [1] is more than 70.4 µM. Further, in assay [2], the Ratio is more than 8.
On to `COc1c(C(=O)/C=C(\O)c2ccccc2)ccc2occc12` [PONGAMOL], for which, in assay [1], the IC50 was 18.7 µM. In assay [2], the Ratio is on record as 3.1.
Turning to `C[S+]([O-])CCCCN=C=S` (stereo not drawn) [SULFORAPHANE], the IC50 in assay [1] worked out at 11 µM. Also, in assay [2], the Ratio came to 25.
Regarding `COc1cc2c(c(O)c1C(=O)/C=C/c1ccccc1)[C@H]1[C@@H](O2)OC(C)(C)[C@@H]1OC(C)=O` [TEPHROPURPURIN], in assay [1], the IC50 was determined as 13.4 µM. Also, the Ratio in assay [2] is listed as 89.

One may read the IC50 as the midpoint of a concentration-inhibition curve.
